Results from patent publication US20250206718A1, “NITROGEN-CONTAINING HETEROCYCLIC DERIVATIVE INHIBITOR, PREPARATION METHOD THEREFOR AND USE THEREOF” (SHANGHAI HANSOH BIOMEDICAL CO., LTD., priority 2022, published 2025).

Biological target: Ba/F3 EGFR Del19/T790M/C797S cells (Homo sapiens, UniProt P00533, T790M/C797S, cells depend on it, form not given)
Test: Cell proliferation inhibition (Cell Titer-Glo), Ba/F3 EGFR Del19/T790M/C797S
Assay type: cell-based, mouse
Conditions: 72 hours, CellTiter-Glo, read-out: Ba/F3 EGFR Del19_T790M_C797S IC50
Description: (§1) Experimental objective: The objective of this test example is to test the inhibitory activity of compounds on the proliferation of different EGFR C797S drug-resistant mutant cell lines Ba/F3 EGFR Del19/T790M/C797S, Ba/F3 EGFR L858R/T790M/C797S, and Ba/F3 EGFR Del19/C797S.
(§2) • Ba/F3 EGFR Del19/T790M/C797S cells were purchased from KYinno Biotechnology Co., Ltd.; • Ba/F3 EGFR Del19/C797S cells were purchased from CoBioer Biosciences Co., Ltd.; • Ba/F3 EGFR L858R/T790M/C797S cells were purchased from CoBioer Biosciences Co., Ltd.; • Cell Titer-Glo was purchased from Promega, with a catalog number of G7573; • RPMI 1640 was purchased from Gibco, with a catalog number of 22400089; • FBS was purchased from Gibco, with a catalog number of 10091148; • cell culture plates were purchased from Corning, with a catalog number of 3610.
(§3) The inhibitory activity of the compound on the proliferation of different EGFR C797S drug-resistant mutant cell lines was detected using the Cell Titer-Glo method. The different cell lines were cultured in RPMI 1640 complete culture medium containing 10% FBS under conditions of 37° C. and 5% CO2, the cells were collected by centrifugation when growing to a certain density, and adjusted to appropriate cell density after counting, the cells were spread on a white 96-well plate at 90 μL/well, and cultured in a 37° C., 5% CO2 incubator overnight, prepared compound solutions of different concentrations were added at 10 μL/well, corresponding solvent controls were set, and all wells were cultured in a 37° C., 5% CO2 incubator for 72 hours, 50 μL of CellTiter-Glo solution was added to each well, shook and mixed evenly, and incubated in the dark for 10 minutes, and a BioTek Synergy H1 microplate reader was used for reading.
(§4) The luminescence signal value was used to calculate the inhibition rate. Graphpad Prism software was used to fit the concentration and inhibition rate to a nonlinear regression curve, so as to obtain the IC50 value, as shown in the Table below for details.

Ba/F3 EGFR Del19/T790M/C797S cells, sequence (P00533 with tags, fused parts or gaps DEL746-750/T790M/C797S, form open): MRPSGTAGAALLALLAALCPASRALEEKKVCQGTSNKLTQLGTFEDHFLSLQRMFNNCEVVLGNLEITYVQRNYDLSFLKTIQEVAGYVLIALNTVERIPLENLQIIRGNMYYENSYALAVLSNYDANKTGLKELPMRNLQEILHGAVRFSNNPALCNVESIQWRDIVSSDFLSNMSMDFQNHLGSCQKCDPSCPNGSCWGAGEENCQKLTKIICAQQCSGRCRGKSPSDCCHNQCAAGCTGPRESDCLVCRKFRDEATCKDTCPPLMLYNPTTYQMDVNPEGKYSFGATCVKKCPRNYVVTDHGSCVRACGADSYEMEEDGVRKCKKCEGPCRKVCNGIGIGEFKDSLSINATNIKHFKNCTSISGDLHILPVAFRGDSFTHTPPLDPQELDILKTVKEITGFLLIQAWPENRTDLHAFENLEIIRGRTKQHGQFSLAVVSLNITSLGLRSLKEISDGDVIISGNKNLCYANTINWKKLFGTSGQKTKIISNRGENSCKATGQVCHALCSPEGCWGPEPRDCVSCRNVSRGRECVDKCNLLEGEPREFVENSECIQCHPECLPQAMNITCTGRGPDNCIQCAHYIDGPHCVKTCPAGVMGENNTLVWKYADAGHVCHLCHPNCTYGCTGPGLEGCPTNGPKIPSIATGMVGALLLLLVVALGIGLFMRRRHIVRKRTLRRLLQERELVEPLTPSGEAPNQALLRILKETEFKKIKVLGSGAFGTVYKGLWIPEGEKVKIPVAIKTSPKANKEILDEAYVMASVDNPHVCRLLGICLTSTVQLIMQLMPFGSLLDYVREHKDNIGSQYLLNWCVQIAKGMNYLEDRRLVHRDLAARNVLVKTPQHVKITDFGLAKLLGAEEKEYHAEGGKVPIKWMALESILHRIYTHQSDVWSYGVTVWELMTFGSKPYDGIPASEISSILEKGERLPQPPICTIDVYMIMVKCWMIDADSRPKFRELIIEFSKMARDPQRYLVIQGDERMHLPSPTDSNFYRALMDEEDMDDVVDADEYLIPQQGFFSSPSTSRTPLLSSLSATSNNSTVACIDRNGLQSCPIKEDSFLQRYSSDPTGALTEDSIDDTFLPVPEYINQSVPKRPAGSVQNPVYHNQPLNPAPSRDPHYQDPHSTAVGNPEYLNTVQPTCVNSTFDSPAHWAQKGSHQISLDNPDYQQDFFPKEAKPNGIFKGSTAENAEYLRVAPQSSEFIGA

Row | SMILES | GI50 [nM]
1 | COC(C)Cn1cc(-c2nccc(Nc3cc4c(C(C)C)ccc(N5C[C@H](CS(C)(=O)=O)[C@H]5C)c4cn3)n2)c(Cl)n1 (stereo partly drawn) [Example 116A, N-(2-(3-chloro-1-(2-methoxypropyl)-1H-pyrazol-4-yl)pyrimidin-4-yl)-5-isopropyl-8-((2R,3S)-2-methyl-3-((methanesulfonyl)methyl)azetidin-1-yl)isoquinolin-3-amine] | 7.6
2 | CC(C)c1ccc(N2CC(NS(C)(=O)=O)C2)c2cnc(Nc3ccnc(-c4cn(C)nc4Cl)n3)cc12 [Example 44, N-(1-(3-((2-(3-chloro-1-methyl-1H-pyrazol-4-yl)pyrimidin-4-yl)amino)-5-isopropylisoquinolin-8-yl)azetidin-3-yl)methanesulfonamide] | 10

Biological target: Ba/F3 EGFR Del19/C797S cells (Homo sapiens, UniProt P00533, C797S, cells depend on it, form not given)
Sequence (P00533 with tags, fused parts or gaps DEL746-750/C797S, form open): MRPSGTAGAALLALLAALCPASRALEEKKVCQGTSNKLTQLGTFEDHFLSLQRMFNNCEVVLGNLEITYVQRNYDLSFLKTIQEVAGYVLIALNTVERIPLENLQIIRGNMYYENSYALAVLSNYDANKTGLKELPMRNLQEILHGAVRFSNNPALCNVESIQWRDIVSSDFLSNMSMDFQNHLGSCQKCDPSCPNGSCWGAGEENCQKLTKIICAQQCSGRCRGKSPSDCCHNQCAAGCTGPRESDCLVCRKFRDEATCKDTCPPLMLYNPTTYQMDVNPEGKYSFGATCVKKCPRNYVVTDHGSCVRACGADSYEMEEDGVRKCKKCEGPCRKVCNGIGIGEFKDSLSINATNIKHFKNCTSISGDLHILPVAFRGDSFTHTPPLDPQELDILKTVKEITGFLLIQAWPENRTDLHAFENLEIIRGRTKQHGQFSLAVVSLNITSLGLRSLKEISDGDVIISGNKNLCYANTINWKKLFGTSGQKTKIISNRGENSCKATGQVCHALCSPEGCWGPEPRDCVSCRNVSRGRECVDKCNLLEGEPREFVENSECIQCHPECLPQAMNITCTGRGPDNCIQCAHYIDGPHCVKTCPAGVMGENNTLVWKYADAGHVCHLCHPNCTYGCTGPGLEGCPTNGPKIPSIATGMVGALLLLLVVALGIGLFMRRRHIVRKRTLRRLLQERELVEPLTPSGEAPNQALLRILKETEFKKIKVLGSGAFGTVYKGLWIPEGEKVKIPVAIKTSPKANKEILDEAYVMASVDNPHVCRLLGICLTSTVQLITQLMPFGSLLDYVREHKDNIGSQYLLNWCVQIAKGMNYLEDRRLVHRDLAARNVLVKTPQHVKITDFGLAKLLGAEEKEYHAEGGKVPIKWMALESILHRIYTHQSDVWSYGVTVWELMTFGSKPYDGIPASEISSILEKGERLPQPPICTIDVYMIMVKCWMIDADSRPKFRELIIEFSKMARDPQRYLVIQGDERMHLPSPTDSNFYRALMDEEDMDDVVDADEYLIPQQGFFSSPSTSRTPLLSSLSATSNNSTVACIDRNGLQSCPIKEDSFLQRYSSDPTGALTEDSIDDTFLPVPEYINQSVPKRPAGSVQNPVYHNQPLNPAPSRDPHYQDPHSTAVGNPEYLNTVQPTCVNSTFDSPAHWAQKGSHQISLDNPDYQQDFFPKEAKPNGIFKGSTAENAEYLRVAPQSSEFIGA
Test: Cell proliferation inhibition (Cell Titer-Glo), Ba/F3 EGFR Del19/C797S
Assay type: cell-based, mouse
Conditions: 72 hours, CellTiter-Glo, read-out: Ba/F3 EGFR Del19/C797S IC50
Description: as §1, §2, §3, §4

Row | SMILES | GI50 [nM]
3 | COC(C)Cn1cc(-c2nccc(Nc3cc4c(C(C)C)ccc(N5C[C@H](CS(C)(=O)=O)[C@H]5C)c4cn3)n2)c(Cl)n1 (stereo partly drawn) [Example 116A, N-(2-(3-chloro-1-(2-methoxypropyl)-1H-pyrazol-4-yl)pyrimidin-4-yl)-5-isopropyl-8-((2R,3S)-2-methyl-3-((methanesulfonyl)methyl)azetidin-1-yl)isoquinolin-3-amine] | 33
4 | CC(C)c1ccc(N2CC(NS(C)(=O)=O)C2)c2cnc(Nc3ccnc(-c4cn(C)nc4Cl)n3)cc12 [Example 44, N-(1-(3-((2-(3-chloro-1-methyl-1H-pyrazol-4-yl)pyrimidin-4-yl)amino)-5-isopropylisoquinolin-8-yl)azetidin-3-yl)methanesulfonamide] | 8.4
5 | CC(C)c1c(F)cc(N2CC(N(C)S(C)(=O)=O)C2)c2cnc(Nc3ccnc(-c4cn(C)nc4Cl)n3)cc12 [Example 124, N-(1-(3-((2-(3-chloro-1-methyl-1H-pyrazol-4-yl)pyrimidin-4-yl)amino)-6-fluoro-5-isopropylisoquinolin-8-yl)azetidin-3-yl)-N-methyl methanesulfonamide] | 14
6 | CC(C)c1ccc(N2C[C@H](CS(C)(=O)=O)[C@H]2C)c2cnc(Nc3ccnc(-c4cn(C5CCN(C)CC5)nc4Cl)n3)cc12 [Example 158, N-(2-(3-chloro-1-(1-methylpiperidin-4-yl)-1H-pyrazol-4-yl)pyrimidin-4-yl)-5-isopropyl-8-((2R,3S)-2-methyl-3-((methanesulfonyl)methyl)azetidin-1-yl)isoquinolin-3-amine] | 50
7 | Cc1nn(C)cc1-c1nccc(Nc2cc3c(C(C)C)ncc(N4C[C@H](N(C)S(C)(=O)=O)[C@H]4C)c3cn2)n1 [Example 61, N-((2R,3S)-1-(7-((2-(1,3-dimethyl-1H-pyrazol-4-yl)pyrimidin-4-yl)amino)-1-isopropyl-2,6-diazanaphthalen-4-yl)-2-methylazetidin-3-yl)-N-methyl methanesulfonamide] | 6
8 | [2H]C([2H])([2H])c1nn(C)cc1-c1nccc(Nc2cc3c(C(C)C)ccc(N4C[C@H](CS(C)(=O)=O)[C@H]4C)c3cn2)n1 [Example 3, 5-isopropyl-8-((2R,3S)-2-methyl-3-((methanesulfonyl)methyl)azetidin-1-yl)-N-(2-(1-methyl-3-(methyl-d3)-1H-pyrazol-4-yl)pyrimidin-4-yl)isoquinolin-3-amine] | 16
9 | CC(C)c1ccc(N2C[C@H](CS(C)(=O)=O)[C@H]2C)c2cnc(Nc3ccnc(-c4cn(C(C)(C)C#N)nc4Cl)n3)cc12 [Example 112, 2-(3-chloro-4-(4-((5-isopropyl-8-((2R,3S)-2-methyl-3-((methanesulfonyl)methyl)azetidin-1-yl)isoquinolin-3-yl)amino)pyrimidin-2-yl)-1H-pyrazol-1-yl)-2-methylpropanenitrile] | 52
10 | CC(C)c1c(N)cc(N2C[C@H](CS(C)(=O)=O)[C@H]2C)c2cnc(Nc3ccnc(-c4cn(C)nc4Cl)n3)cc12 [Example 169, N3-(2-(3-chloro-1-methyl-1H-pyrazol-4-yl)pyrimidin-4-yl)-5-isopropyl-8-((2R,3S)-2-methyl-3-((methanesulfonyl)methyl)azetidin-1-yl)isoquinoline-3,6-diamine] | 52
11 | CC(C)c1ccc(N2C[C@H](CS(C)(=O)=O)[C@H]2C)c2cnc(Nc3ccnc(-c4cn(C[C@H]5CCN5C)nc4Cl)n3)cc12 [Example 146, N-(2-(3-chloro-1-(((R)-1-methylazetidin-2-yl)methyl)-1H-pyrazol-4-yl)pyrimidin-4-yl)-5-isopropyl-8-((2R,3S)-2-methyl-3-((methanesulfonyl)methyl)azetidin-1-yl)isoquinolin-3-amine] | 80
12 | CC(C)c1ccc(N2C[C@H](CS(C)(=O)=O)[C@H]2C)c2cnc(Nc3ccnc(-c4cn(CC(O)C(F)(F)F)nc4Cl)n3)cc12 (stereo partly drawn) [Example 113, 3-(3-chloro-4-(4-((5-isopropyl-8-((2R,3S)-2-methyl-3-((methanesulfonyl)methyl)azetidin-1-yl)isoquinolin-3-yl)amino)pyrimidin-2-yl)-1H-pyrazol-1-yl)-1,1,1-trifluoropropan-2-ol] | 60
13 | CC(C)c1ccc(N2C[C@H](CS(C)(=O)=O)[C@H]2C)c2cnc(Nc3ccnc(-c4cn(C5CC5)nc4F)n3)cc12 [Example 9, N-(2-(1-cyclopropyl-3-fluoro-1H-pyrazol-4-yl)pyrimidin-4-yl)-5-isopropyl-8-((2R,3S)-2-methyl-3-((methylsulfonyl)methyl)azetidin-1-yl)isoquinolin-3-amine] | 57
14 | CC(C)c1ccc(N2C[C@H](CS(C)(=O)=O)[C@H]2C)c2cnc(Nc3ccnc(-c4cn(CC5CCO5)nc4Cl)n3)cc12 (stereo partly drawn) [Example 165, N-(2-(3-chloro-1-(oxetan-2-ylmethyl)-1H-pyrazol-4-yl)pyrimidin-4-yl)-5-isopropyl-8-((2R,3S)-2-methyl-3-((methanesulfonyl)methyl)azetidin-1-yl)isoquinolin-3-amine] | 22
15 | CC(C)c1ccc(N2C[C@H](CS(C)(=O)=O)[C@H]2C)c2cnc(Nc3ccnc(-c4cn(C(F)F)nc4Cl)n3)cc12 [Example 177, N-(2-(3-chloro-1-(difluoromethyl)-1H-pyrazol-4-yl)pyrimidin-4-yl)-5-isopropyl-8-((2R,3S)-2-methyl-3-((methanesulfonyl)methyl)azetidin-1-yl)isoquinolin-3-amine] | 43
16 | CC(C)c1ccc(N2C[C@H](CS(C)(=O)=O)[C@H]2C)c2cnc(Nc3ccnc(-c4cn(C5CC(C#N)C5)nc4Cl)n3)cc12 (stereo partly drawn) [Example 151A, 3-(3-chloro-4-(4-((5-isopropyl-8-((2R,3S)-2-methyl-3-((methanesulfonyl)methyl)azetidin-1-yl)isoquinolin-3-yl)amino)pyrimidin-2-yl)-1H-pyrazol-1-yl)cyclobutane-1-carbonitrile] | 41
17 | CC(C)c1ccc(N2C[C@H](N3CCOC3=O)[C@H]2C)c2cnc(Nc3ccnc(-c4cn(C)nc4Cl)n3)cc12 [Example 109, 3-((2R,3S)-1-(3-((2-(3-chloro-1-methyl-1H-pyrazol-4-yl)pyrimidin-4-yl)amino)-5-isopropylisoquinolin-8-yl)-2-methylazetidin-3-yl)oxazolidin-2-one] | 14
18 | CC(C)c1c(F)cc(N2CC(NS(C)(=O)=O)C2)c2cnc(Nc3ccnc(-c4cn(C)nc4Cl)n3)cc12 [Example 178, N-(1-(3-((2-(3-chloro-1-methyl-1H-pyrazol-4-yl)pyrimidin-4-yl)amino)-6-fluoro-5-isopropylisoquinolin-8-yl)azetidin-3-yl)methanesulfonamide] | 19

Tested on: not listed separately
Test: Rat pharmacokinetic evaluation test
Assay type: in vivo
Conditions: Sprague-Dawley (SD), po, SD rats, male, p.o. 5 mg/kg, plasma
Experimental: SD rats were used as test animals to study the pharmacokinetic behavior of the compounds of the present invention in the rat body (plasma) after oral administration at a dose of 5 mg/kg.
2.2 Experimental Animals: 3 SD Rats/Group, Male, from Shanghai Jiesijie Experimental Animal Co., Ltd., Animal Production License Number (SCXK (Shanghai) 2013-0006 No. 311620400001794).
• Oral administration drug preparation: 20% solutol HS15 in 0.5% MC (methylcellulose)
20 g of a Solutol HS15 solid and 0.5 g of a MC solid powder were weighed and dissolved in 80 mL of purified water, and the mixture was vortexed, mixed until uniform, and subjected to ultrasound treatment to obtain a clear solution of 20% solutol HS15 in 0.5% MC.
The example compound was weighed into a 20 mL glass bottle, the solution was added thereto and the mixture was subjected to ultrasound treatment for 10 minutes to obtain a clear solution with a concentration of 0.5 mg/mL.
3 male SD rats were administered p.o. respectively after the 3 male SD rats were fasted overnight; the p.o. dose was 5 mg/kg and the administration volume was 10 mL/kg.
Blood collection: Before and after administration to rats, 0.2 mL of blood was collected from the jugular vein at 0.25, 0.5, 1, 2, 4, 6, 8 and 24 h, and placed in an EDTA-K2 anticoagulation tube, which was centrifuged at 6000 rpm at 4° C. for 6 min to separate plasma which was stored at −80° C.; the rats were fed 4 h after administration.
1) 160 μL of acetonitrile was added to 40 μL of plasma sample for precipitation, mixed and centrifuged at 3500×g for 5 to 20 min.
2) the treated supernatant solution was taken and subjected to LC/MS/MS to analyze the concentrations of the test compounds. LC/MS/MS analysis instrument: AB Sciex API 4000 Qtrap.
• Liquid phase conditions: Shimadzu LC-20AD pump • Chromatographic column: Agilent ZORBAX XDB-C18 (50×2.1 mm, 3.5 μm) mobile phase: liquid A is 0.1% aqueous formic acid solution, liquid B is acetonitrile • Flow rate: 0.4 mL/min • Elution time: 0-4.0 min, the eluent is as follows:
The main pharmacokinetic parameters were calculated using WinNonlin 6.1.

Row | SMILES | AUC(0-t) [ng·h/mL] | Cmax [ng/mL] | half-life [min]
19 | [2H]C([2H])([2H])c1nn(C)cc1-c1nccc(Nc2cc3c(C(C)C)ccc(N4C[C@H](CS(C)(=O)=O)[C@H]4C)c3cn2)n1 [Example 3, 5-isopropyl-8-((2R,3S)-2-methyl-3-((methanesulfonyl)methyl)azetidin-1-yl)-N-(2-(1-methyl-3-(methyl-d3)-1H-pyrazol-4-yl)pyrimidin-4-yl)isoquinolin-3-amine] | 2380 | 458 | 246
